Data published in patent US9175283B2, “Use polysaccharides for promotion of enzymatic activity” (Genzyme Corporation, priority 2006, dated 2015).

Test system: sialidase, β-galactosidase, and β-hexosaminidase
Assay: Promotion of Target Enzyme activity: oligosaccharide modification of column-bound GCR substrate, FACE assay
Format: biochemical
Conditions: pH 5.7; for % Modification (FACE Assay): additive at 10%, sialidase 210, β-galactosidase 33, β-hexosaminidase 2500 U/L sv, approx. 24 hours, room temperature; for Promotion of enzymatic activity of the Target Enzymes versus no additive (in words): additive concentrations of Table 9
Excerpt: The FACE assay is a preferred method of monitoring the enzymatic activity of the oligosaccharide/polysaccharide enzymes (such as the Target Enzymes in certain Examples herein) by determining the extent of modification of a substrate (including, but not limited to, a protein, glycoprotein or oligosaccharide) of a Target Enzyme(s). Using a FACE assay, a higher FACE number is indicative of a greater degree of modification and a greater degree of Target Enzyme(s) activity. The FACE assays are known in the art.
In the Examples herein, when the Target Enzymes were sialidase, β-galactosidase, and β-hexosaminidase, a FACE assay was used to determine the percentage of modified oligosaccharide species in the GCR substrate. Specifically, GCR was treated with N-glycanase (approximately 8 U of N-glycanase per 40 μg GCR) to release intact N-linked oligosaccharide chains. The released oligosaccharides were then labeled with the fluorophore: ANTS (8-aminonapthalene-1,3,6-trisulfonic acid and separated on oligosaccharide profiling gel (Glyko®/Prozyme®, San Leandro, Calif.) as per the manufacturers instructions. A dextran reference ladder standard (Glyko®)/Prozyme®, San Leandro, Calif.) was also run on the gel along with reference oligosaccharides, GlcNAc2(+Fuc)Man3 and GlcNAc2(-Fuc)Man3, Glyko®/Prozyme®, San Leandro, Calif.). Bands on the gel were then quantified by scanning the gel for fluorescence using a SE2000 imager system with fluorescence imaging software (Glyko®/Prozyme®, San Leandro, Calif.).
The ratio (%) of the fluorescent intensity of the bands representing two core structures, GlcNAc2(Fuc)Man3 and GlcNAc2Man3 (core structures), to the total intensity of bands with mobility ≦GlcNac2Man3 in a given lane provided the percentage of modified GCR. Since GCR acts as a substrate for the three Target Enzymes, sialidase, β-galactosidase, and β-hexosaminidase, the FACE results correlate to the activity of the Target Enzymes against GCR. For GCR, the FACE values can range from about 0 to about 100%, about 3% to about 90% and about 5% to about 85%.
HES was prepared as a 20% (w/v) stock solution by dissolving solid HES into buffer of the appropriate pH. For this Example, 100 mM sodium citrate, 5 mM calcium chloride, pH 5.7 buffer was used. The 20% […] stock solution was used to make a final concentration of 5% w/L sv HES in the Target Enzyme cocktails. […]
Target Enzyme cocktails containing three Target Enzymes were made by combining sialidase (210 U/L sv), β-galactosidase (33 U/L sv), β-hexosaminidase (2500 U/L sv), and either Hmxl (14 mL/L sv) or HES (5% w/L sv). […] The enzymatic activity of GCR is measured using standard assays (see, e.g., U.S. Pat. No. 6,451,600). […]

| SMILES | % Modification (FACE Assay) [%] | Promotion of enzymatic activity of the Target Enzymes versus no additive (in words) |
| --- | --- | --- |
| CC(O)CO (stereo not shown) [Propylene glycol, propylene glycol] | 51.1 | did not show Target Enzyme promotion |
| OCC(O)CO [Glycerol, glycerol] | 34.2 | showed a diminution of Target Enzyme promotion |
